Laboratory results taken from ChEMBL document CHEMBL1137981, “Identification and specificity studies of small-molecule ligands for SH3 protein domains” (J Med Chem, 2004).

Columns and labels:
[1] = molecular target: T1, Tyrosine-protein kinase TEC (Mus musculus, UniProt Q8CFK4); assay: Binding affinity to mouse Tec kinase SH3 domain by NMR chemical shift perturbation
T1 sequence (Q8CFK4 whole entry): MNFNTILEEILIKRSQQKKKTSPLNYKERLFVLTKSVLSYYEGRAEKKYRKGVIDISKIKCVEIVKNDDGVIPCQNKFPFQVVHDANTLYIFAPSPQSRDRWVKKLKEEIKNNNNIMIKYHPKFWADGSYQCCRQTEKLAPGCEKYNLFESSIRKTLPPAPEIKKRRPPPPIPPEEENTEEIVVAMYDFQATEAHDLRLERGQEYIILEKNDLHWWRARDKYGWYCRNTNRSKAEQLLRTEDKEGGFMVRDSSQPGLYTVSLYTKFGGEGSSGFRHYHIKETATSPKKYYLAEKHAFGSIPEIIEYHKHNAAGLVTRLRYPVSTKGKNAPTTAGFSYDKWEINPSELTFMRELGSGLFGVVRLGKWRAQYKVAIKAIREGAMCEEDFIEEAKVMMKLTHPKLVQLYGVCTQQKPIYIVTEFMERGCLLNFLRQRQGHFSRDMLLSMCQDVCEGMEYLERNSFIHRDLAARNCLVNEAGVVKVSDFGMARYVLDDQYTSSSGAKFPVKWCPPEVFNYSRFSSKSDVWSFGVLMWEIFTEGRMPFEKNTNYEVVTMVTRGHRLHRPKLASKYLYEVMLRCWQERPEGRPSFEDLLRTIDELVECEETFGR

[2] = Ionization constant (pKa) for the compound; assay type: physicochemical
[3] = molecular target: T1, Tyrosine-protein kinase TEC; assay: Displacement of PRP-1 peptide from mouse Tec kinase SH3 domain by fluorescence polarization
[4] = molecular target: SH2/SH3 adapter protein NCK1 (Homo sapiens, UniProt P16333); assay: Displacement of PRP-1 peptide from human Nck […] SH3 domain by fluorescence polarization
[5] = molecular target: T1, Tyrosine-protein kinase TEC; assay: Binding affinity to mouse Tec kinase SH3 domain by NMR chemical shift perturbation; No binding
[6] = molecular target: T1, Tyrosine-protein kinase TEC; assay: Displacement of PRP-1 peptide from mouse Tec kinase SH3 domain by fluorescence polarization; No competition
[7] = molecular target: T1, Tyrosine-protein kinase TEC; assay: Binding affinity to mouse Tec kinase SH3 domain by NMR chemical shift perturbation; No binding; remark: listed apart in the source

Structure (SMILES) | Kd [1] [µM] | EC50 [3] [µM] | further results
Nc1ccccn1 [2-AMINOPYRIDINE] | > 4000 | – | –
Nc1ncc2ccccc2n1 | – | – | pKa [2]: 4.82
O=c1ccc2ccccc2[nH]1 | – | – | Kd [5]: Not Active
Nc1ccc2cccc(O)c2n1 | – | – | EC50 [6]: Not Active
CC(=O)Nc1ccc2ccccc2n1 | – | – | Kd [5]: Not Active
CC1(C)COC(c2ccc3nc(N)ccc3c2)OC1 | 22 | – | –
c1ccc2ncccc2c1 [QUINOLINE] | – | – | Kd [5]: Not Active
Nc1ncccn1 | – | – | pKa [2]: 3.54; Kd [7]: Not Active
Nc1ccc2cc(Br)ccc2n1 | – | 58 | –
Nc1ccc2ccccc2c1 [NAPHTHYLAMINE] | – | – | Kd [5]: Not Active
Nc1ccc2cc(Cl)ccc2n1 | – | 76 | –

Further lines, with some results ahead:

Kd [1] [µM] | EC50 [3] [µM] | Structure (SMILES) | further results
380 | – | CNc1ccc2ccccc2n1 | –
– | 63 | COc1ccc2nc(N)ccc2c1 | –
52 | 26 | Nc1ccc2cc(C3OCCCO3)ccc2n1 | EC50 [4]: > 500 µM
61 | 75 | Cc1ccc2nc(N)ccc2c1 | EC50 [4]: 90 µM
40 | 34 | Nc1ccc2cc(C3OCCO3)ccc2n1 | EC50 [4]: 300 µM
– | 150 | Nc1ccc2cc(F)ccc2n1 | –
